Source: US9556417B2, “Reprogramming of cells to a new fate” (The Scripps Research Institute, priority 2010, dated 2017)

Assays:
[1] = system: Wnt/β-catenin pathway; conditions: cited from earlier work
[2] = system: tail-tip fibroblasts (TTFs); test: Neural transdifferentiation of TTFs in presence of JAK inhibitor; assay type: cell-based, mouse; conditions: JAK inhibitor 1 0.5 μM from day 4 onward
Procedure: For TTF reprogramming, Lentivirus supernatants were produced and harvested as previously described (Takahashi K. et al. Cell 131(5):861-872 (2007)). Briefly, 293T cells (Invitrogen) were plated at 5×10^6 cells per 100 mm dish and incubated overnight in a 37° C. incubator. Cells were transfected with 4 μg pHAGE2-TetOminiCMV-STEMCCA (29) or FUW-M2rtTA (Addgene) along with packaging mix (1 μg psPAX2 and 3 μg pMD2.G) (Addgene) and FuGENE 6 Transfection Reagent (Roche), according to the manufacturer's instructions. The cells were then cultured in a 32° C. degree incubator, after which supernatants were collected at 48 and 72 hours (post-transfection) and filtered through a 0.45 μm filter (Millipore) before use. TTFs were prepared as previously described (Takahashi, K., et al., Cell 126(4):663-676 (2006)). Briefly, tails (only the final third) were cut into small pieces (less than 0.5 cm) and grown on gelatine-coated plates in MEF medium. Cells that migrated out of the tissue were transferred into new dish and used after one more passage (p3). After two rounds of transduction with STEMCCA and rtTA expressing virus, cells were plated on Geltrex-coated dishes at 2×10^4 cells/cm^2 and reprogrammed as described above. JAK inhibitor 1 (Calbiochem) was added from day 4 onward at 0.5 μM during TTF transdifferentiation. […]

[3] = system: R1 ES cells; test: Serum-free monolayer cardiac differentiation of ES cells, beating colonies; assay type: cell-based, mouse; conditions: early treatment window
Procedure: Having identified the first serum-free monolayer condition for cardiac differentiation of ES cells, we sought to test its efficacy as a platform to discover regulators of cardiomyogenesis. A collection of approximately 200 small molecules and growth factors reported to be influential in developmental processes were assembled. R1 ES cells were grown and plated for differentiation on Matrigel in 24-well plates using the media and growth factors described above. The screening collection was then added and removed from each well at specific time points in order to account for different developmental time windows. The collection was screened at days 0-2, 2-5, and 5-7.
Cells are plated at a density of 200,000 cells/well of a 6-well plate in 2.5 ml of ESGM. 6-well plates are coated overnight at 4° C. with 1 ml of Matrigel (BD Bioscience) diluted 50× from stock concentration. 24 hours after plating, or after sufficient colony size was achieved, cells are switched into chemically defined medium (CDM) and treated with 4 uM BIO (Calbiochem) and 20 ng/ml BMP-4 (R&D). CDM contains RPMI 1640, 0.5×N2, 1×B27 (without Vitamin A), 0.5× Glutamax, 0.55 mM beta-mercaptoethanol, 1× non-essential amino acids, 1× nucleosides. At Day 2, medium is changed, and again CDM containing 4 uM BIO with 20 ng/ml BMP-4 is added to the cells. At Day 5, cells are washed once with PBS and medium is changed to CDM containing 100 ng/ml Dkk-1 (R&D). At Day 7, medium is changed, and again CDM containing 100 ng/ml Dkk-1 is added to the cells. At Day 10, cells are trypsinized (0.05% trypsin) (Approximately 5 minutes at 37° C., or until cells begin to detach) and replated onto gelatin coated 6-well plates in CDM with no additional growth factors. By this time, the cells will have formed tight colonies that will be difficult to disrupt (Supplementary FIG. 2b). […] The trypsin is used primarily to detach the cells rather than to dissociate them to a single cell suspension. It is preferable for the colonies to remain intact. The trypsin is briefly quenched with MEF media, cells are centrifuged, and resuspended in CDM for plating. Medium is refreshed as needed to remove dead cells and debris (every 1 to 2 days).

[4] = system: Brachyury-EGFP ES cell; test: FACS analysis of mesodermal markers (Brachyury-GFP, Flk-1); assay type: cell-based, mouse; conditions: treated day 0-2, harvested day 4.5
Procedure: To ascertain what role calcium and cAMP might be playing in this early stage of cardiac differentiation, FACS was carried out using two markers involved in mesodermal fates. Specifically, a Brachyury-EGFP ES cell (a gift from the Keller lab) was used to identify cells progressing to a primitive streak type population. Further, cells were stained using a Flk-1 antibody to further delineate axial location of the primitive streak type cells. Briefly, cells were treated with small molecules for day 0-2, and harvested at day 4.5 for analysis.
Cells were harvested into a single cell suspension by treatment with 0.05% trypsin, quenched with serum containing medium, and resuspended in FACS buffer: lx PBS (Ca/Mg^2+ free), 1 mM EDTA, 25 mM HEPES pH 7.0, 1% Fetal Bovine Serum. Cells were then filtered with […], and stored at 4° C. until analysis.

[5] = system: secondary MEFs; test: Neural transdifferentiation of secondary MEFs with exposure to LIF-containing medium; assay type: cell-based, mouse
Procedure: NGFP1 Dox-inducible iPS cells (Hanna J. et al., Nature (2009); Hanna, J. et al., Cell 133(2):250-264 (2008)) (Stemgent) were injected into C57BL/6 blastocysts and implanted into surrogate mice (CD1, Harlan). Chimeric embryos were isolated at E12.5-13.5. Heads, developing organs and spinal cords were carefully removed from the embryos and MEFs were prepared and selected as previously described (Hanna J. et al., Nature (2009); Wernig, M. et al., Nat Biotechnol 26(8):916-924 (2008); Hanna, J. et al., Cell 133(2):250-264 (2008)). For reprogramming, secondary MEFs (p3-4) were plated on Geltrex-coated culture dishes at 1.5-2×10^4 cells/cm^2 in MEF medium (Dullbecco's modified Eagle's medium supplemented with 10% fetal bovine serum, 0.1 mM non-essential amino acids, and 2 mM Glutamax). Doxycycline (Sigma-Aldrich, 2-8 μg/ml) treatment was initiated the next morning (Day 0) and continued until the designated day(s). Cells were cultured in MEF medium for an additional day and changed to reprogramming initiation medium (RepM-Ini; knock-out DMEM supplemented with 10% knock-out serum replacer, 5% FBS, 0.1 mM NEAA, 2 mM Glutamax, and 0.055 mM β-mercaptoethanol) for three days. For neural stem/progenitor reprogramming, the medium was changed into neural reprogramming medium (RepM-Neural; Advanced DMEM/F12 and Neurobasal medium were mixed by 1:1 and supplemented with 0.05% bovine serum albumin, 1×N2, 1×B27, 2 mM Glutamax, 0.11 mM β-mercaptoethanol, 20 ng/ml FGF2, 2 ng/ml FGF4, and 20 ng/ml EGF). RepM-Pluri is the same as RepM-Ini, with the addition of 1000 units/ml LIF (Millipore).
Total RNA was extracted from samples at the designated time points using the RNeasy Plus Mini Kit with QiaShredder (Qiagen). One microgram of total RNA per sample was reverse-transcribed using the iScript cDNA synthesis kit (Bio-Rad) and the cDNA was diluted with 130 ul of water. 1/50 of the diluted cDNA was used for quantitative PCR with iQ SYBR Green Supermix on the CFX96 system (Bio-Rad). All qPCR reactions were done in duplicate or triplicate, and the expression data were normalized to both Gapdh and β-actin expression using CFX manager software (Bio-Rad). All primer sequences are listed in previous publications (Hanna J. et al., Nature (2009); Wernig, M. et al., Nat Biotechnol 26(8):916-924 (2008); Greber, B. et al., Cell Stem Cell 6(3):215-226 (2010)).
Samples were washed once with D-PBS (Invitrogen, without Ca^2+ and Mg^2+) and were fixed with a 4% pure-formaldehyde solution (Electron Microscopy Sciences) with 0.15% picric acid (Sigma-Aldrich) in D-PBS for 20 min, followed by three washes with D-PBS. Blocking and permeabilization were done with a 3% BSA (Jackson ImmunoResearch) and 0.3% Triton X-100 (Sigma-Aldrich) solution in D-PBS for 1 hr at room temperature. […]

[6] = system: mouse embryonic fibroblasts (MEFs); test: Direct cardiac reprogramming of fibroblasts, contracting patch/colony counts; assay type: cell-based; conditions: standard reprogramming media with LIF for the first nine days
Description: Having successfully initiated the early cardiogenic program in MEFs, we next sought to induce robust activation of mid-stage cardiac gene expression and to ultimately generate spontaneously contracting patches of cardiac cells, a hallmark of terminal differentiation that is easily observed and quantified. To this end, we treated three-factor transduced MEFs with chemically defined media (CDM) as well as cytokines and small molecules that might enhance cardiogenesis by regulating TGFβ, bone morphogenetic protein (BMP), Hedgehog, Wnt, or Notch pathway activity. Treatments were done individually and in combination, and at different times during the reprogramming process. Despite the general unsuitability of the resulting protocol for iPSC generation, we also explored whether small-molecule inhibition of JAK-STAT (Janus kinase-signal transducer and activator of transcription), PI3K (phosphatidylinositol 3-kinase), or Wnt signalling during the early stages of the protocol might boost the effectiveness of cardiomyogenesis by preventing even a small number of iPSC intermediates from forming. Finally, we experimented with a more gradual transition between different media by lowering FBS concentration step-wise in increments of 1-4% over 3-6 days (immediately prior to switching to CDM). […] During this initial nine-day period, the small-molecule JAK inhibitor JD is continuously kept in the media at a concentration of 0.5 μM. From day nine onwards, the cells are cultured in CDM, with the cardioinductive growth factor BMP4 (Snyder, A. et al., J Cell Biochem 93, 224-32 (2004)) being added at 20 ng/ml for the first five days (FIG. 1b).
All MEFs (129S2/SvPasCrlf) were derived according to WiCell protocols (https://www.wicell.org/index.php?option=com_docman&task=doc_download&gid=687). TTFs were a kind gift of Dr. Hans Schöler. Secondary MEFs were derived as previously described (Wernig, M. et al., Nat Biotechnol 26, 916-24 (2008)). All results were initially obtained and confirmed with the Nebulette-LacZ MEFs; to ensure reproducibility and minimize inter-experimental variation, reported results almost exclusively derive from experiments utilizing secondary dox-inducible MEFs using the optimum induction period. MEFs were initially passaged on gelatin-coated (0.1% for 2 hours at 37° C.) tissue culture dishes in DMEM supplemented with 10% FBS, 2 mM Glutamax and 0.1 mM NEAA (all components from Invitrogen, Carlsbad, Calif.). Prior to viral transduction, cells were seeded onto Matrigel (BD Biosciences, Franklin Lakes, N.J.) or Geltrex (Invitrogen)-coated plates (1:40, overnight at 4° C.) at 3.5×10^4 cells per well of a six well plate (7×10^4 cells for TTFs) in the same media. […]

**Q.** With `Cc1ccc2nc(NC(=O)CSc3nc4c(c(=O)n3-c3ccccc3)SCC4)sc2c1` [IWP-2, 2-(3,4,6,7-tetrahydro-4-oxo-3-phenylthieno[3,2-d]pyrimidin-2-ylthio)-N-(6-methylbenzo[d]thiazol-2-yl)acetamide] as the compound, how does the IC50 [1] read?
**A.** 27 nM

**Q.** What does the source list for `CC(C)(C)c1nc2c3ccc(F)cc3c3c(=O)[nH]ccc3c2[nH]1` [JAK inhibitor1]?
**A.** Pax6 expression of colonies [2]: all remaining colonies homogeneously expressed Pax6; decrease in number of colonies [2]: around 30%

**Q.** Which “cardiac differentiation / percentage of beating colonies” value [3] does the source give for `CC(C)NCC(O)COc1cccc2ccccc12` (centres unmarked) [propranolol] here?
**A.** greatly decreased cardiac potential

**Q.** What about the “Flk-1 positive portion of GFP+ cells” value [4] of the same compound?
**A.** decreased

**Q.** With “LIF: leukaemia inhibitory factor, added to standard reprogramming medium” as the compound, how does the “gene expression of Sox1, Pax6, Nanog, Rex1” value ([5]; day 9) read?
**A.** down-regulation of Sox1 and Pax6 with concomitant up-regulation of Nanog and Rex1

**Q.** And the “number of PLZF-expressing colonies” value ([5]; day nine, as little as one day LIF exposure)?
**A.** clearly decreased

**Q.** And the “Sox17, T, and FGF5 expression” value ([5]; days 9, 11, and 13)?
**A.** increased

**Q.** What about the “number of SSEA1-expressing cells” value ([5]; flow cytometry) of the same compound?
**A.** increases

**Q.** And the “decline in beating colony number” value [6]?
**A.** ~25 fold

**Q.** What about the onset of beating [6] of the same compound?
**A.** four-day delay
